From US20220402948A1, “EGFR INHIBITOR, COMPOSITION AND PREPARATION METHOD THEREFOR” (BETTA PHARMACEUTICALS CO., LTD., priority 2019, published 2022)

What was measured:
Format in all cases: biochemical
[1] = biological target: EGFR WT (Homo sapiens, UniProt P00533); experiment: EGFR WT kinase test (mobility variation analysis, Caliper EZ Reader); details: kinase enzymatic activity, Table 1
Procedure: (§1) Mobility variation analysis was performed to determine the affinity of the compound for EGFRΔ19del/T790M/C797S, EGFR WT and IGF1R. The enzymatic reaction scheme is as follows:
(§2) 1. Prepare 1*kinase buffer as follows.
(§3) 3. […] Prepare 2.5-fold final concentration of kinase solution with 1×Kinase buffer.
(§4) 4. Add 10 μL of 2.5-fold final concentration of kinase solution to the compound well and the positive control well; add 10 μL of 1×Kinase buffer to the negative control well.
(§5) 5. Centrifuge at 1000 rpm for 30 s, shake the reaction plate for well mixing, and then incubate at room temperature for 10 minutes.
(§6) 6. Prepare a mixture of ATP and Kinase substrate at 5/3-fold final concentration with 1×Kinase buffer.
(§7) 8. Centrifuge the 384-well plate at 1000 rpm for 30 s, shake it well and then incubate it at room temperature for corresponding time.
(§8) 9. Add 30 μL of stop detection solution to stop the kinase reaction, centrifuge at 1000 rpm for 30 s, and shake it well.
(§9) 10. Read conversion rate with Caliper EZ Reader.
(§10) % Inhibition=((Conversion%_max−Conversion%_sample)/(Conversion%_max−Conversion%_min))*100
(§11) Wherein: Conversion%_sample is the sample conversion rate reading; Conversion%_min: Mean value of negative control wells, representing the conversion rate reading of wells without enzymatic activity; Conversion%_max: Mean value of positive control wells, representing the conversion rate reading of wells without compound inhibition.
(§12) The dose-effect curve was fitted with concentration log value as X-axis and percentage inhibition rate as Y-axis. GraphPad Prism 5 analysis software was used for fitting Log (inhibitor) vs. response—Variable slope with the dose-effect curve to obtain IC50 value of enzymatic activity for each compound.
(§13) The calculation formula is as Y-Bottom+(Top-Bottom)/(1+10^((Log IC50−X)*HillSlope)).

[2] = biological target: IGF1R (Homo sapiens, UniProt P08069); experiment: IGF1R kinase test (mobility variation analysis, Caliper EZ Reader); details: kinase enzymatic activity, Table 1; read-out: EGFR IGF1R IC50
Sequence of IGF1R (P08069 31-1367, species assumed): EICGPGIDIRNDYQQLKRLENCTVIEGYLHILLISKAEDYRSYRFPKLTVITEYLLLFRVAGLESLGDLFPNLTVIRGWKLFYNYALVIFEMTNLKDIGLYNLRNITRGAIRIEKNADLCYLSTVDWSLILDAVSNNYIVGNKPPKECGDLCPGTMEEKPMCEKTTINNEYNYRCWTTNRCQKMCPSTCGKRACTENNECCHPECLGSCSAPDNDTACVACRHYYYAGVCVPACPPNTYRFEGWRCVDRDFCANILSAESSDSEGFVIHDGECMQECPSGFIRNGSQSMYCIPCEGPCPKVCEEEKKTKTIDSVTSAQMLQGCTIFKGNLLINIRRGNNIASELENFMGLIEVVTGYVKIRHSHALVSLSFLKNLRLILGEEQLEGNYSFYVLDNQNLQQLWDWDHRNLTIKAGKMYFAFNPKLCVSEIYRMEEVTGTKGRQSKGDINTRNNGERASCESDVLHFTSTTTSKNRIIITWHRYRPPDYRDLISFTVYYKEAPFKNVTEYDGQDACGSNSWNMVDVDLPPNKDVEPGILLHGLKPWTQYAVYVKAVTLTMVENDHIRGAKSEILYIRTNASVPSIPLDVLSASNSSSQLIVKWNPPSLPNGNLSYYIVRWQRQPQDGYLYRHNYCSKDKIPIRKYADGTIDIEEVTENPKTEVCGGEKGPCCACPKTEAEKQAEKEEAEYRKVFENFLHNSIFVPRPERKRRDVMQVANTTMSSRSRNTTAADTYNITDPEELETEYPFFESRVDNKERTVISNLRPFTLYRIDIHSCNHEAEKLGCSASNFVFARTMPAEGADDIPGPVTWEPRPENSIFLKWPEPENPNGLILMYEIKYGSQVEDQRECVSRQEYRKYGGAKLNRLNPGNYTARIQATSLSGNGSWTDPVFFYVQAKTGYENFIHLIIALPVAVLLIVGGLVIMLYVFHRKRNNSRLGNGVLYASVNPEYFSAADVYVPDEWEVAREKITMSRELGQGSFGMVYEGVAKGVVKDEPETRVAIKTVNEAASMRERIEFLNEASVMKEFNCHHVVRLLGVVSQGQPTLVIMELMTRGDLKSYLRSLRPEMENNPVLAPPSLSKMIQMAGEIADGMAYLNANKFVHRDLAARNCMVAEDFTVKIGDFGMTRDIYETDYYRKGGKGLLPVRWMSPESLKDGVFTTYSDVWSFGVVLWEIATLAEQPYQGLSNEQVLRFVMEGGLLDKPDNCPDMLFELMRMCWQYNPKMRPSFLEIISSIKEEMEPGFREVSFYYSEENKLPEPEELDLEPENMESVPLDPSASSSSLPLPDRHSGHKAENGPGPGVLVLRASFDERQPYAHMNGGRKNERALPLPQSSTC
Procedure: as §1, §2
2. Preparation of compound concentration gradient: The test compound was tested with an initial concentration of 3000 nM (300 nM for some triple mutations and 100 nM for others), diluted in a 384 source plate (96-well plate for comparative compound 1 and compounds 1-38) to a 100% DMSO solution with 100-fold final concentration, and the compound is 3-fold diluted with Precision to 10 concentrations. A dispenser Echo 550 was used to transfer 250 nL 100-fold final concentration of the compound to the target plate OptiPlate-384F.
3. Prepare 2.5-fold final concentration (5-fold for comparative compound 1 and compounds 1-38) of kinase solution with 1×Kinase buffer. Following steps should also be carried out for comparative compound 1 and compounds 1-38: Add each prepared intermediate dilution compounds to the compound wells of 384-well plate respectively, and test the repeated wells of each concentration; add 5% DMSO of 5 plates into the negative control well and the positive control well respectively. Prepare 2.5-fold final concentration of kinase solution with 1×Kinase buffer.
as §4, §5, §6
7. Add 15 μL mixture of 5/3-fold (2.5-fold for comparative compound 1 and compounds 1-38) final concentration of ATP and substrate to start reaction.
as §7, §8, §9, §10, §11, §12, §13

[3] = biological target: EGFRΔ19del/T790M/C797S (Homo sapiens, UniProt P00533, T790M/C797S, form not given); experiment: EGFR Δ19del/T790M/C797S kinase test (mobility variation analysis, Caliper EZ Reader); details: kinase enzymatic activity, Table 1
Sequence of EGFRΔ19del/T790M/C797S (P00533 with tags, fused parts or gaps DEL746-750/T790M/C797S, form open): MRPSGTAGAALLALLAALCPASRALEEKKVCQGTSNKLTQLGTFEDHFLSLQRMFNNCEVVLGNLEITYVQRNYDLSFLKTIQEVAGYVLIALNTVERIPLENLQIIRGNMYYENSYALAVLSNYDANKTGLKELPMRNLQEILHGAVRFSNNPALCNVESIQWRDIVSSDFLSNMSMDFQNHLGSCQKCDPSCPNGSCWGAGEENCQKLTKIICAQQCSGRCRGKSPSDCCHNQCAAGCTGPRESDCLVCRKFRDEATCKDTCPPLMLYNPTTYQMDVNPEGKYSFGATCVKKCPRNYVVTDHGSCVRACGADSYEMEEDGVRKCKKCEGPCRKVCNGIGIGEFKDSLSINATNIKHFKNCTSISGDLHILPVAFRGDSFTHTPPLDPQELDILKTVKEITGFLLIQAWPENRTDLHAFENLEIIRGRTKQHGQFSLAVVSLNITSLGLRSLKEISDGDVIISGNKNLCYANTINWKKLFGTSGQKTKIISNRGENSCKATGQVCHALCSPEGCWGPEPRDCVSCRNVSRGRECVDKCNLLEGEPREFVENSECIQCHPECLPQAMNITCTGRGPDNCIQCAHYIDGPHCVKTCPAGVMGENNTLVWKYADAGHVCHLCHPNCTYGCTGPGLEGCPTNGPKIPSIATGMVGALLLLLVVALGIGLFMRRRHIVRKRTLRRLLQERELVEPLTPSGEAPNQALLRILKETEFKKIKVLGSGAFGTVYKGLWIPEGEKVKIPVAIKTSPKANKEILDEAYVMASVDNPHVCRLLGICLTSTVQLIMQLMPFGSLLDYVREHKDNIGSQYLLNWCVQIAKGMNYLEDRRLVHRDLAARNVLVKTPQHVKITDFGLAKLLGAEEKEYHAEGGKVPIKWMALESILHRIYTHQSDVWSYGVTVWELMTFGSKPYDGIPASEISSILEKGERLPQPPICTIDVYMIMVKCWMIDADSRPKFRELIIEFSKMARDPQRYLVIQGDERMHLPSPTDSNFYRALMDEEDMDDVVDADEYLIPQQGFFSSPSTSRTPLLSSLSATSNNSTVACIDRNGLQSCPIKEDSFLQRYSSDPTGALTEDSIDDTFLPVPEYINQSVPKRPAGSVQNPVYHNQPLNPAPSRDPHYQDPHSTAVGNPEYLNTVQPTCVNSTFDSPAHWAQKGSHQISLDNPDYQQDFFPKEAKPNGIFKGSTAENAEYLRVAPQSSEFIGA
Procedure: as §1, §2, §3, §4, §5, §6, §7, §8, §9, §10, §11, §12, §13

Sequence of EGFR WT (P00533 25-1210): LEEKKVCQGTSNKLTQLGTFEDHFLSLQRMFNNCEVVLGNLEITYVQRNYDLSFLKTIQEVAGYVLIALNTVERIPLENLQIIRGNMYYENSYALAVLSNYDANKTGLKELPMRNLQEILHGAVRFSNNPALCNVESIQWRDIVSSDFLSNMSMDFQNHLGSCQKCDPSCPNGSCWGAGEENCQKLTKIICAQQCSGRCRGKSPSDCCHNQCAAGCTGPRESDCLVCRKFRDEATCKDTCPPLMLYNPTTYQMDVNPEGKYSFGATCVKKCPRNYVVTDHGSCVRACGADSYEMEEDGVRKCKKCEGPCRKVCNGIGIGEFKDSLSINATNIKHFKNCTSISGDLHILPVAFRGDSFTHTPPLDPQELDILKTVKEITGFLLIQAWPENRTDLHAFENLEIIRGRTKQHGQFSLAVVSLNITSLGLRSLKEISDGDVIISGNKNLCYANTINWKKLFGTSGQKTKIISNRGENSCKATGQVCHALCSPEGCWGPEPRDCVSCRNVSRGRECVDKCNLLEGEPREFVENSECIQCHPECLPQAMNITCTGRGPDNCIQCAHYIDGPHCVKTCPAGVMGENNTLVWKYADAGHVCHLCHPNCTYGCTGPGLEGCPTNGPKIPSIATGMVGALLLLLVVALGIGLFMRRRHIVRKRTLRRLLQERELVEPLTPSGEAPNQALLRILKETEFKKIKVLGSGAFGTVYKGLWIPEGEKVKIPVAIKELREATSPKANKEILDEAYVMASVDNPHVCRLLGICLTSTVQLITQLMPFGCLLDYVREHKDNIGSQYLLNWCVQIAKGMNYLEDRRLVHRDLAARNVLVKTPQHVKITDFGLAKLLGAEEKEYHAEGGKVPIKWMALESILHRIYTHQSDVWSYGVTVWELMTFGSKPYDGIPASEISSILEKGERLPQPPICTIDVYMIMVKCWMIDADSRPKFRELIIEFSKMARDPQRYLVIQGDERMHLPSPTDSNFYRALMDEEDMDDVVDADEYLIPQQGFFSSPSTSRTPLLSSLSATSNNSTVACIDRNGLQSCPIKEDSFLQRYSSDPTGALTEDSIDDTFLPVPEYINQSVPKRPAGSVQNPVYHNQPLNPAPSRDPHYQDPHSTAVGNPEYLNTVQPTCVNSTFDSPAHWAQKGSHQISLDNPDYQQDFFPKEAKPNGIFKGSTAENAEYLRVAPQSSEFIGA

Compound	IC50 [1] [nM]	IC50 [2] [nM]	IC50 [3] [nM]
CCc1cc(Nc2ncc(Br)c(Nc3ccc(-c4ccn[nH]4)cc3P(C)(C)=O)n2)c(OC)cc1N1CCC(N2CCN(C)CC2)CC1 [Compound 39, (2-((5-Bromo-2-((5-ethyl-2-methoxy-4-(4-(4-methylpiperazin-1-yl)piperidin-1-yl)phenyl)amino)pyrimidin-4-yl)amino)-5-(1H-pyrazol-5-yl)phenyl)dimethylphosphine oxide]	18.3	138	0.4
CCc1cc(Nc2ncc(Cl)c(Nc3ccc(-c4cnn5c4CC(C)(C)C5)cc3P(C)(C)=O)n2)c(OC)cc1N1CCC(N2CCN(C)CC2)CC1 [Compound 41, (2-((5-Chloro-2-((5-ethyl-2-methoxy-4-(4-(4-methylpiperazin-1-yl)piperidin-1-yl)phenyl)amino)pyrimidin-4-yl)amino)-5-(5,5-dimethyl-5,6-dihydro-tetrahydro-pyrrolo[1,2-b]pyrazol-3-)phenyl)dimethylphosphine oxide]	58.9	748	1.5
CCc1cc(Nc2ncc(Br)c(Nc3ccc(-c4cn(C)c5cccnc45)cc3P(C)(C)=O)n2)c(OC)cc1N1CCC(N2CCN(C)CC2)CC1 [Compound 42]	86.2	1170	1.24
CCc1cc(Nc2ncc(Br)c(Nc3ccc(-c4cc5cc(C#N)ccc5[nH]4)cc3P(C)(C)=O)n2)c(OC)cc1N1CCC(N2CCN(C)CC2)CC1 [Compound 43]	82.5	748	2.5
CCc1cc(Nc2ncc(Cl)c(Nc3ccc(-c4cn[nH]c4)cc3P(C)(C)=O)n2)c(OC)cc1N1CCC(N2CCN(C)CC2)CC1 [Compound 48, (2-((5-Chloro-2-((5-ethyl-2-methoxy-4-(4-(4-methylpiperazin-1-yl)piperidin-1-yl)phenyl)amino)pyrimidin-4-yl)amino)-5-(1H-pyrazol-4-yl)phenyl)dimethylphosphine oxide]		112	0.3
CCc1cc(Nc2ncc(Br)c(Nc3ccc(-n4cccn4)cc3P(C)(C)=O)n2)c(OC)cc1N1CCC(N2CCN(C)CC2)CC1 [Compound 49, (2-((5-Bromo-2-((5-ethyl-2-methoxy-4-(4-(4-methylpiperazin-1-yl)piperidin-1-yl)phenyl)amino)pyrimidin-4-yl)amino)-5-(1H-pyrazol-1-yl)phenyl)dimethylphosphine oxide]	416	2780	4.1
CCc1cc(Nc2ncc(Br)c(Nc3ccc(-c4cccc5cc[nH]c45)cc3P(C)(C)=O)n2)c(OC)cc1N1CCC(N2CCN(C)CC2)CC1 [Compound 52]	203	1910	1.9
CCc1cc(Nc2ncc(Cl)c(Nc3ccc(-c4cnccc4OC)cc3P(C)(C)=O)n2)c(OC)cc1N1CCC(N2CCN(C)CC2)CC1 [Compound 53, (2-((5-Chloro-2-((5-ethyl-2-methoxy-4-(4-(4-methylpiperazin-1-yl)piperidin-1-yl)phenyl)amino)pyrimidin-4-yl)amino)-5-(4-methoxypyridin-3-yl)phenyl)dimethylphosphine oxide]	64	1100	0.6
CCc1cc(Nc2ncc(Br)c(Nc3ccc(-c4c(C)cnn4C)cc3P(C)(C)=O)n2)c(OC)cc1N1CCC(N2CCN(C)CC2)CC1 [Compound 54]	42.2	624	0.6
CCc1cc(Nc2ncc(Cl)c(Nc3ccc(-c4ccnc5c4ccn5C)cc3P(C)(C)=O)n2)c(OC)cc1N1CCC(N2CCN(C)CC2)CC1 [Compound 56, (2-((5-Chloro-2-((5-ethyl-2-methoxy-4-(4-(4-methylpiperazin-1-yl)piperidin-1-yl)phenyl)amino)pyrimidin-4-yl)amino)-5-(1-methyl-1H-pyrrolo[2,3-b]pyridin-4-yl)phenyl)dimethylphosphine oxide]	72.5	886	2.4
CCOc1noc(C)c1-c1ccc(Nc2nc(Nc3cc(CC)c(N4CCC(N5CCN(C)CC5)CC4)cc3OC)ncc2Cl)c(P(C)(C)=O)c1 [Compound 58, (2-((5-Chloro-2-((5-ethyl-2-methoxy-4-(4-(4-methylpiperazin-1-yl)piperidin-1-yl)phenyl)amino)pyrimidin-4-yl)amino)-5-(3-ethoxy-5-methylisoxazol-4-yl)phenyl)dimethylphosphine oxide]	65	274	3.7
CCc1cc(Nc2ncc(Br)c(Nc3ccc(-c4ncsc4C)cc3P(C)(C)=O)n2)c(OC)cc1N1CCC(N2CCN(C)CC2)CC1 [Compound 60]	47	418	0.6
CCc1cc(Nc2ncc(Br)c(Nc3ccc(-c4ncnn4C)cc3P(C)(C)=O)n2)c(OC)cc1N1CCC(N2CCN(C)CC2)CC1 [Compound 62, (2-((5-Bromo-2-((5-ethyl-2-methoxy-4-(4-(4-methylpiperazin-1-yl)piperidin-1-yl)phenyl)amino]pyrimidin-4-yl)amino)-5-(1-methyl-1H-1,2,4-triazol-5-yl)phenyl)dimethylphosphine oxide]	216	992	0.8
CCc1cc(Nc2ncc(Br)c(Nc3ccc(-c4cn(C)cn4)cc3P(C)(C)=O)n2)c(OC)cc1N1CCC(N2CCN(C)CC2)CC1 [Compound 68, (2-((5-Bromo-2-((5-ethyl-2-methoxy-4-(4-(4-methylpiperazin-1-yl)piperidin-1-yl)phenyl)amino)pyrimidin-4-yl)amino)-5-(1-methyl-1H-imidazol-4-yl)phenyl)dimethylphosphine oxide]	84.7	663	0.9
CCc1cc(Nc2ncc(Br)c(Nc3ccc(-c4nccn4C4CC4)cc3P(C)(C)=O)n2)c(OC)cc1N1CCC(N2CCN(C)CC2)CC1 [Compound 69]	316	1940	4
CCc1cc(Nc2ncc(Br)c(Nc3ccc(-c4cccc(N(C)C)n4)cc3P(C)(C)=O)n2)c(OC)cc1N1CCC(N2CCN(C)CC2)CC1 [Compound 71]	55.1	714	1.3
CCc1cc(Nc2ncc(Cl)c(Nc3ccc(-c4cccc5ocnc45)cc3P(C)(C)=O)n2)c(OC)cc1N1CCC(N2CCN(C)CC2)CC1 [Compound K-052, (5-(Benzo[d]oxazol-4-yl)-2-((5-chloro-2-((5-ethyl-2-methoxy-4-(4-(4-methylpiperazin-1-yl)piperidin-1-yl)phenyl)amino)pyrimidin-4-yl)amino)phenyl)dimethylphosphine oxide]	44	886	1.6
CCn1cc(-c2cc(Nc3ncc(Br)c(Nc4ccc(-c5cccc6cc[nH]c56)cc4P(C)(C)=O)n3)c(OC)cc2N2CCC(N3CCN(C)CC3)CC2)cn1 [Compound K-091, (2-((5-Bromo-2-((5-(1-ethyl-1H-pyrazol-4-yl)-2-methoxy-4-(4-(4-methylpiperazin-1-yl)piperidin-1-yl)phenyl)amino)pyrimidin-4-yl)amino)-5-(1H-indol-7-yl)phenyl)dimethylphosphine oxide]	38.8	279	0.8
CCc1cc(Nc2ncc(Cl)c(Nc3ccc(-c4ccc[nH]c4=O)cc3P(C)(C)=O)n2)c(OC)cc1N1CCC(N2CCN(C)CC2)CC1 [Compound K-092, 3-(4-((5-Chloro-2-((5-ethyl-2-methoxy-4-(4-(4-methylpiperazin-1-yl)piperidin-1-yl)phenyl)amino)pyrimidin-4-yl)amino)-3-(dimethylphosphoryl)phenyl)pyridin-2(1H)-one]	83.6	427	0.8
CCn1cc(-c2cc(Nc3ncc(Br)c(Nc4ccc(-c5nn(C)c6ncccc56)cc4P(C)(C)=O)n3)c(OC)cc2N2CCC(N3CCN(C)CC3)CC2)cn1 [Compound K-102, (2-((5-Bromo-2-((5-(1-ethyl-1H-pyrazol-4-yl)-2-methoxy-4-(4-(4-methylpiperazin-1-yl)piperidin-1-yl)phenyl)amino)pyrimidin-4-yl)amino)-5-(1-methyl-1H-pyrazolo[3,4-b]pyridin-3-yl)phenyl)dimethylphosphine oxide]			0.3
